Test results taken from US20210380556A1, “HETEROARYLAZOLE COMPOUND AND PEST CONTROL AGENT” (Nippon Soda Co., Ltd., priority 2018, published 2021).

System: Mythimna separata
Test: Test Example 1: efficacy on Mythimna separata (treated artificial feed)
Format: in vivo
Conditions: 1 μl of emulsion (I) (5% active ingredient) in 0.8 g artificial feed; second instar larvae; 25° C.; fifth day
Source text: 5 parts of the heteroaryl azole compound of the present invention, 93.6 parts of dimethylformamide, and 1.4 parts of polyoxyethylene alkyl aryl ether were mixed and dissolved to prepare emulsion (I) containing 5% of the active ingredient.
For a control, 98.5 parts of dimethylformamide and 1.5 parts of polyoxyethylene alkyl aryl ether were mixed and dissolved to prepare emulsion (II).
Insecticidal rate (%)=(The number of dead insects/The number of tested insects)×100
0.8 g of commercially available artificial feed (Insecta LFS, manufactured by Nosan Corp.) and 1 μl of the emulsion (I) were well mixed to obtain test feed.
A plastic test container (capacity: 1.4 ml) was packed with 0.2 g of the test feed per treatment plot. Then, two second instar larvae of Mythimna separata were inoculated to each treatment plot. A plastic lid was put on the test container so as to prevent escape of the second instar larvae of Mythimna separata. The container was placed in a thermostat chamber of 25° C. On the fifth day, the insecticidal rate and the food intake were examined. The test was conducted in duplicate.
The insecticidal rate and the food intake of a control plot were examined in the same way as in Test Example 1 except that the emulsion (I) was changed to the emulsion (II).

SMILES | insecticidal rate or food intake as compared with the control plot
CCS(=O)(=O)c1cnc(N)nc1-c1ncc(C(F)(F)C(F)(F)C(F)(F)C(F)(F)F)n1C [a-8] | insecticidal rate of 100% for Mythimna separata or a food intake of 10% or less
CCS(=O)(=O)c1cnc(OC)nc1-c1ncc(C(F)(F)C(F)(F)C(F)(F)C(F)(F)F)n1C [a-9] | insecticidal rate of 100% for Mythimna separata or a food intake of 10% or less
CCS(=O)(=O)c1cc(C2CC2)cnc1-c1ncc(C(F)(F)C(F)(F)C(F)(F)C(F)(F)F)n1C [b-1] | insecticidal rate of 100% for Mythimna separata or a food intake of 10% or less
CCSc1cccnc1-c1ncc(C(F)(F)C(F)(F)C(F)(F)C(F)(F)F)n1C [b-2] | insecticidal rate of 100% for Mythimna separata or a food intake of 10% or less
CCS(=O)(=O)c1cccnc1-c1ncc(C(F)(F)C(F)(F)C(F)(F)C(F)(F)F)n1C [b-3] | insecticidal rate of 100% for Mythimna separata or a food intake of 10% or less
CCS(=O)(=O)c1cc(C(F)(F)F)cnc1-c1ncc(C(F)(F)C(F)(F)C(F)(F)C(F)(F)F)n1C [b-7] | insecticidal rate of 100% for Mythimna separata or a food intake of 10% or less
CCS(=O)(=O)c1ccc(-n2cncn2)nc1-c1ncc(C(F)(F)C(F)(F)C(F)(F)C(F)(F)F)n1C [b-8] | insecticidal rate of 100% for Mythimna separata or a food intake of 10% or less
CCS(=O)(=O)c1ccc(-c2ncccn2)nc1-c1ncc(C(F)(F)C(F)(F)C(F)(F)C(F)(F)F)n1C [b-9] | insecticidal rate of 100% for Mythimna separata or a food intake of 10% or less
CCS(=O)(=O)c1ccc(-n2cncn2)nc1-c1ncc(C(F)C(F)(F)C(F)(F)C(F)(F)C(F)(F)F)n1C (stereo not shown) [b-10] | insecticidal rate of 100% for Mythimna separata or a food intake of 10% or less
CCS(=O)(=O)c1cccnc1-c1ncc(C(F)C(F)(F)C(F)(F)C(F)(F)C(F)(F)F)n1C (stereo not shown) [b-11] | insecticidal rate of 100% for Mythimna separata or a food intake of 10% or less
CCS(=O)(=O)c1ccc(N)nc1-c1ncc(C(F)(F)C(F)(F)C(F)(F)C(F)(F)F)n1C [b-12] | insecticidal rate of 100% for Mythimna separata or a food intake of 10% or less
CCS(=O)(=O)c1ccc(-n2cncn2)nc1-c1ncc(C(Cl)C(F)(F)C(F)(F)C(F)(F)C(F)(F)F)n1C (stereo not shown) [b-13] | insecticidal rate of 100% for Mythimna separata or a food intake of 10% or less
CCS(=O)(=O)c1cc(C(F)(F)F)cnc1-c1ncc(C(F)(F)C(F)(F)C(F)(F)F)n1C [b-15] | insecticidal rate of 100% for Mythimna separata or a food intake of 10% or less
CCS(=O)(=O)c1ccc(-n2cncn2)nc1-c1ncc(C(F)(F)C(F)(F)C(F)(F)F)n1C [b-16] | insecticidal rate of 100% for Mythimna separata or a food intake of 10% or less
CCS(=O)(=O)c1ccc(-n2cncn2)nc1-c1ncc(C(F)(F)C(F)(F)F)n1C [b-17] | insecticidal rate of 100% for Mythimna separata or a food intake of 10% or less
CCS(=O)(=O)c1cc(C2CC2)cnc1-c1ncc(C(F)C(F)(F)C(F)(F)C(F)(F)F)n1C (stereo not shown) [b-18] | insecticidal rate of 100% for Mythimna separata or a food intake of 10% or less
CCS(=O)(=O)c1cc(C2CC2)cnc1-c1ncc(C(F)(F)C(F)(F)C(F)(F)F)n1C [b-20] | insecticidal rate of 100% for Mythimna separata or a food intake of 10% or less
CCS(=O)(=O)c1cc(-c2ncccn2)cnc1-c1ncc(C(F)(F)C(F)(F)F)n1C [b-22] | insecticidal rate of 100% for Mythimna separata or a food intake of 10% or less
CCS(=O)(=O)c1cc(Br)cnc1-c1ncc(C(F)C(F)(F)C(F)(F)F)n1C (stereo not shown) [b-23] | insecticidal rate of 100% for Mythimna separata or a food intake of 10% or less
CCS(=O)(=O)c1cc(-c2ncccn2)cnc1-c1ncc(C(F)C(F)(F)C(F)(F)F)n1C (stereo not shown) [b-24] | insecticidal rate of 100% for Mythimna separata or a food intake of 10% or less

SMILES | insecticidal rate or food intake as compared with the control plot
CCS(=O)(=O)c1cc(C2CC2)cnc1-c1ncc(C(F)C(F)(F)C(F)(F)F)n1C (stereo not shown) [b-25] | insecticidal rate of 100% for Mythimna separata or a food intake of 10% or less
CCS(=O)(=O)c1cc(C2CC2)cnc1-c1ncc(C(F)(F)C(F)(F)F)n1C [b-26] | insecticidal rate of 100% for Mythimna separata or a food intake of 10% or less
CCS(=O)(=O)c1cc(-c2ccccn2)cnc1-c1ncc(C(F)C(F)(F)C(F)(F)F)n1C (stereo not shown) [b-27] | insecticidal rate of 100% for Mythimna separata or a food intake of 10% or less
CCS(=O)(=O)c1cc(-c2ccccn2)cnc1-c1ncc(C(F)(F)C(F)(F)C(F)(F)F)n1C [b-29] | insecticidal rate of 100% for Mythimna separata or a food intake of 10% or less
CCS(=O)(=O)c1cc(-c2ncccn2)cnc1-c1ncc(C(Cl)C(F)(F)C(F)(F)F)n1C (stereo not shown) [b-32] | insecticidal rate of 100% for Mythimna separata or a food intake of 10% or less
CCS(=O)(=O)c1cc(-c2cc(F)cc(F)c2)cnc1-c1ncc(C(F)C(F)(F)C(F)(F)F)n1C (stereo not shown) [b-34] | insecticidal rate of 100% for Mythimna separata or a food intake of 10% or less
CCS(=O)(=O)c1cc(-c2cncnc2)cnc1-c1ncc(C(F)C(F)(F)C(F)(F)F)n1C (stereo not shown) [b-35] | insecticidal rate of 100% for Mythimna separata or a food intake of 10% or less
CCS(=O)(=O)c1cc(-n2ccc(C(F)(F)F)n2)cnc1-c1ncc(C(F)(F)C(F)(F)C(F)(F)F)n1C [b-36] | insecticidal rate of 100% for Mythimna separata or a food intake of 10% or less
C=Cc1cnc(-c2ncc(C(F)C(F)(F)C(F)(F)F)n2C)c(S(=O)(=O)CC)c1 (stereo not shown) [b-39] | insecticidal rate of 100% for Mythimna separata or a food intake of 10% or less
CCS(=O)(=O)c1cc(NC(=O)C2CC2)cnc1-c1ncc(C(F)(F)C(F)(F)C(F)(F)F)n1C [b-41] | insecticidal rate of 100% for Mythimna separata or a food intake of 10% or less
CCS(=O)(=O)c1cc(C(C)(C)C#N)cnc1-c1ncc(C(F)(F)C(F)(F)C(F)(F)F)n1C [b-42] | insecticidal rate of 100% for Mythimna separata or a food intake of 10% or less
CCS(=O)(=O)c1cc(-c2ccccn2)cnc1-c1ncc(C(F)C(F)(C(F)(F)F)C(F)(F)F)n1C (stereo not shown) [b-43] | insecticidal rate of 100% for Mythimna separata or a food intake of 10% or less
CCS(=O)(=O)c1cc(-c2ccccn2)cnc1-c1ncc(C(Cl)C(F)(C(F)(F)F)C(F)(F)F)n1C (stereo not shown) [b-44] | insecticidal rate of 100% for Mythimna separata or a food intake of 10% or less
CCS(=O)(=O)c1cc(-n2cncn2)cnc1-c1ncc(C(F)(F)C(F)(F)C(F)(F)F)n1C [b-45] | insecticidal rate of 100% for Mythimna separata or a food intake of 10% or less
CCS(=O)(=O)c1cc(C2CC2)cnc1-c1ncc(C(F)C(F)(C(F)(F)F)C(F)(F)F)n1C (stereo not shown) [b-52] | insecticidal rate of 100% for Mythimna separata or a food intake of 10% or less
CCS(=O)(=O)c1cc(C2CC2)cnc1-c1ncc(C(Cl)C(F)(C(F)(F)F)C(F)(F)F)n1C (stereo not shown) [b-53] | insecticidal rate of 100% for Mythimna separata or a food intake of 10% or less
CCS(=O)(=O)c1cc(-c2ncccc2C#N)cnc1-c1ncc(C(F)(F)C(F)(F)C(F)(F)F)n1C [b-54] | insecticidal rate of 100% for Mythimna separata or a food intake of 10% or less
CCS(=O)(=O)c1cc(-c2ncccc2F)cnc1-c1ncc(C(F)(F)C(F)(F)C(F)(F)F)n1C [b-55] | insecticidal rate of 100% for Mythimna separata or a food intake of 10% or less
CCS(=O)(=O)c1cc(C2(c3ccccn3)CC2)cnc1-c1ncc(C(F)C(F)(C(F)(F)F)C(F)(F)F)n1C (stereo not shown) [b-57] | insecticidal rate of 100% for Mythimna separata or a food intake of 10% or less
CCS(=O)(=O)c1cc(-c2ccccc2F)cnc1-c1ncc(C(F)(F)C(F)(F)C(F)(F)F)n1C [b-58] | insecticidal rate of 100% for Mythimna separata or a food intake of 10% or less
